Earlier results as cited in PubChem BioAssay AID1259410 (Chemical Carcinogenesis Research Information System (CCRIS), 2018).

Test system: rodent tumor promotion studies, tumor incidence
Test: CCRIS tumor promotion studies

In the case of H-HADGVFTSDYSRLLGQLSAKKYLESLI-NH2, the outcome (Carcinogen: AZOXYMETHANE, 25843-45-2, Doses [Carcinogen]: 7.4 MG/KG BW IN 0.9% SALINE 1/WK FOR 10 WK, Doses [Promoter]: 0, 4 NMOL/KG BW IN OLIVE OIL 1/2 D FOR DURATION OF STUDY (STUDY DURATION: 35 WK), Route [Carcinogen]: SUBCUTANEOUS, Route [Promoter]: SUBCUTANEOUS, Species: RAT, Strain/Sex: WISTAR/MALE, FEMALE) is given as “colon: tumor”.
In the case of `O=CC=O`, the outcome (Carcinogen: N-METHYL-N'-NITRO-N-NITROSOGUANIDINE, 70-25-7, Doses [Carcinogen]: 100 MG/L IN DRINKING WATER FOR 8 WK, Doses [Promoter]: 0, 0.5% IN DRINKING WATER BEGINNING POST LAST CARCINOGEN DOSE AND CONTINUING FOR 32 WK (STUDY DURATION: 40 WK), Route [Carcinogen]: ORAL, Route [Promoter]: ORAL, Species: RAT, Strain/Sex: WISTAR/MALE) is given as “glandular stomach (pylorus): adenocarcinoma”.
In the case of `CC(O)(CS(=O)(=O)c1ccc(F)cc1)C(=O)Nc1ccc(C#N)c(C(F)(F)F)c1` (stereo not given), the outcome (Carcinogen: 3,2'-DIMETHYL-4-AMINOBIPHENYL, 13394-86-0, Doses [Carcinogen]: 50 MG/KG BW ONCE/2 WK FOR FIRST 20 WK, Doses [Promoter]: 0, 10, 30 MG/KG BW BY GAVAGE 3X/WK FOR 40 WK BEGINNING 20 WK POST CARCINOGEN TREATMENT (STUDY DURATION: 60 WK), Doses [Promoter]: 0, 10, 30 MG/KG BW BY GAVAGE 3X/WK FOR 40 WK BEGINNING 20 WK POST CARCINOGEN TREATMENT (STUDY DURATION: 60 WK), Route [Carcinogen]: SUBCUTANEOUS, Route [Promoter]: ORAL, Species: RAT, Strain/Sex: F344/MALE) is given as “prostate (ventral): adenocarcinoma”.
For `Nc1ncn([C@@H]2O[C@H](CO)[C@@H](O)[C@H]2O)c(=O)n1`, the outcome (Carcinogen: DIETHYLNITROSAMINE, 55-18-5, Doses [Carcinogen]: 50 MG/KG IN SALINE ADMINISTERED ONCE 18 HR AFTER PARTIAL HEPATECTOMY, Doses [Promoter]: 0, 2.5, 10 MG/KG 2/WK FOR 9 MO BEGINNING POST CARCINOGEN DOSE (STUDY DURATION: 18 MO), Doses [Promoter]: 0, 2.5, 10 MG/KG 2/WK FOR 9 MO BEGINNING POST CARCINOGEN DOSE (STUDY DURATION: 18 MO), Route [Promoter]: INTRAPERITONEAL, Species: RAT, Strain/Sex: F344/MALE) is given as “liver: hepatocellular carcinoma” and the outcome (Carcinogen: DIETHYLNITROSAMINE, 55-18-5, Doses [Carcinogen]: 80 MG/KG 1/WK FOR 5 WK, Doses [Promoter]: 0, 5, 10 MG/KG INJECTED 4, 24, AND 48 HR AFTER EACH CARCINOGEN EXPOSURE (STUDY DURATION: 6 MO), Doses [Promoter]: 0, 5, 10 MG/KG INJECTED 4, 24, AND 48 HR AFTER EACH CARCINOGEN EXPOSURE (STUDY DURATION: 6 MO), Route [Carcinogen]: INTRAPERITONEAL, Route [Promoter]: INTRAPERITONEAL, Species: RAT, Strain/Sex: BD6/MALE) is given as “liver: tumor”.
In the case of `O=[N+]([O-])c1ccc2ccc3cccc4ccc1c2c34`, the outcome (Carcinogen: POLYCHLORINATED BIPHENYLS, 1336-36-3, Doses [Carcinogen]: 2.5 MG/KG ONCE, Doses [Promoter]: 0, 1575 MG/KG IN DMSO ADMINISTERED IN 17 DOSES 3/WK BEGINNING POST CARCINOGEN TREATMENT (STUDY DURATION: 18 WK), Route [Carcinogen]: INTRAPERITONEAL, Route [Promoter]: INTRAPERITONEAL, Species: MOUSE, Strain/Sex: A/J/MALE) is given as “lung: adenoma and adenocarcinoma”.
For `CCCCCCCCCCC(C)C1(CCC(=O)OC2C(C)C3(O)C(C=C(CO)CC4(O)C(=O)C(C)=CC43)C3C(C)(C)C23OC(C)=O)OCC(C)(C)N1[O]` (stereo not given), the outcome (Carcinogen: 7,12-DIMETHYLBENZ[A]ANTHRACENE, 57-97-6, Doses [Carcinogen]: 100 NMOL ONCE, Doses [Promoter]: 0, 20 NMOL 2/WK FOR 24 WK BEGINNING 1 WK POST CARCINOGEN DOSE (STUDY DURATION: 25 WK), Route [Carcinogen]: DERMAL, Route [Promoter]: DERMAL, Species: MOUSE, Strain/Sex: NMRI/FEMALE) is given as “skin: tumor”.
For `CCCCCCCC/C=C/CCCCCCCC(=O)OCCOCC(OCCO)C1OCC(OCCO)C1OCCO` (stereo not given), the outcome (Carcinogen: 7,12-DIMETHYLBENZ(A)ANTHRACENE, Doses [Carcinogen]: TOP, Route [Carcinogen]: DERMAL, Route [Promoter]: DERMAL, Species: MOUSE, Strain/Sex: FEMALE) is listed as “integumentary system (skin)”.
In the case of `OCl`, the outcome (Carcinogen: 4-NITROQUINOLINE-1-OXIDE, Doses [Carcinogen]: TOP, Route [Carcinogen]: DERMAL, Route [Promoter]: DERMAL, Species: MOUSE, Strain/Sex: FEMALE) is given as “integumentary system (skin)”.
For `O=S(=O)(O)NC1CCCCC1`, the outcome (Carcinogen: METHYLNITROSOUREA, Doses [Carcinogen]: BLADDER IMP, Doses [Promoter]: IN DIET, Route [Carcinogen]: BLADDER IMPLANT, Route [Promoter]: ORAL, Species: RAT, Strain/Sex: WISTAR/FEMALE) is listed as “urinary bladder”.
For `CCCC[C@@H](C)[C@@H](OC(=O)C[C@@H](CC(=O)O)C(=O)O)[C@H](C[C@@H](C)C[C@H](O)CCCC[C@@H](O)C[C@H](O)[C@H](C)N)OC(=O)C[C@@H](CC(=O)O)C(=O)O`, the outcome (Doses [Carcinogen]: 100 PPB IN WATER FOR 30 MIN, Doses [Promoter]: 0, 23, 104 PPM IN DIET FOR 42 WK BEGINNING 1 MO POST CARCINOGEN TREATMENT (STUDY DURATION: 64 WK), Doses [Promoter]: 0, 23, 104 PPM IN DIET FOR 42 WK BEGINNING 1 MO POST CARCINOGEN TREATMENT (STUDY DURATION: 64 WK), Route [Carcinogen]: IMMERSION, Route [Promoter]: ORAL, Species: FISH, Strain/Sex: SHASTA RAINBOW TROUT/MALE,FEMALE) is listed as “liver: tumor”.
In the case of `ClC1=C(Cl)C2(Cl)C3C(Cl)C(Cl)CC3C1(Cl)C2(Cl)Cl` (stereo not given), the outcome (Carcinogen: DIETHYLNITROSAMINE, 55-18-5, Doses [Carcinogen]: 20 PPM IN DRINKING WATER FOR 14 WK, Doses [Promoter]: 0, 25, 50 PPM TECHNICAL GRADE IN DIET BEGINNING 4 WK POST LAST CARCINOGEN DOSE AND CONTINUING FOR 25 WK (STUDY DURATION:, Doses [Promoter]: 0, 25, 50 PPM TECHNICAL GRADE IN DIET BEGINNING 4 WK POST LAST CARCINOGEN DOSE AND CONTINUING FOR 25 WK (STUDY DURATION:, Route [Carcinogen]: ORAL, Route [Promoter]: ORAL, Species: MOUSE, Strain/Sex: B6C3F1/MALE) is given as “liver: adenoma or carcinoma”.
For `Oc1ccccc1-c1ccccc1`, the outcome (Carcinogen: 7,12-DIMETHYLBENZ[A]ANTHRACENE, 57-97-6, Doses [Carcinogen]: 10 UG 2/WK FOR 5 WK, Doses [Promoter]: 0, 5 MG 2/WK FOR 47 WK BEGINNING 1 WK AFTER LAST CARCINOGEN DOSE (STUDY DURATION: 53 WK), Route [Carcinogen]: DERMAL, Route [Promoter]: DERMAL, Species: MOUSE, Strain/Sex: CD-1/FEMALE) is listed as “skin: papilloma, carcinoma”, the outcome (Carcinogen: N-BUTYL-N-4(HYDROXYBUTYL)NITROSAMINE, 3817-11-6, Doses [Carcinogen]: 0.05% IN DRINKING WATER FOR 2 WK, Doses [Promoter]: 0, 2% IN DIET STARTING POST CARCINOGEN AND CONTINUING FOR 22 WK, LEFT URETER LIGATED 8 D POST CARCINOGEN (STUDY DURATION, Route [Carcinogen]: ORAL, Route [Promoter]: ORAL, Species: RAT, Strain/Sex: F344/MALE) is listed as “bladder: papilloma” and the outcome (Carcinogen: N-BUTYL-N-(4-HYDROXYBUTYL)NITROSAMINE, Doses [Carcinogen]: 0.05% IN DRINKING WATER FOR 4 WK, Doses [Promoter]: 2.0% IN DIET FOR 32 WK AFTER INITIATION, Route [Carcinogen]: ORAL, Route [Promoter]: ORAL, Species: RAT, Strain/Sex: F344/MALE) is listed as “urinary bladder: transitional cell carcinoma”.
